Assay results reported in patent US9884056B2, “Oral pharmaceutical dosage forms” (Durect Corporation, priority 2008, dated 2018).

How the values were obtained:
[1] = In vitro volatilization test; format: physicochemical; settings: 40 mg in petri dish on hot plate
Excerpt: In order to further assess the abuse-resistance performance of abuse-resistant dosage forms produced according to the present invention, the following in vitro volatilization test was developed. In particular, intentional abuse of controlled release pharmaceutical dosage forms may alternatively be carried out by volatilization (smoking, or free-basing) techniques that can liberate active agent (in immediately active form) from commercially available controlled release carrier systems. Accordingly, a preliminary in vitro volatilization test was developed in order to assess: (1) whether a free base form of an active agent (in this case, oxycodone) was more volatile than the salt (HCl) form; and (2) whether abuse-resistant dosage forms produced according to the instant invention can prevent inhalation abuse through volatilization.
Each petri dish was fitted with a watch glass as a cover, and the covered test dishes were placed on a hot plate (setting 10). After 30 seconds each watch glass was replaced with a fresh watch glass, and this step was repeated three times (to obtain 4 time points). Any residue deposited on the bottom side of the test watch glasses was carefully transferred with an Alpha Swab (TX 761) into 40/60 ethanol/0.005M HCl solution, and the concentration of oxycodone solution was determined by HPLC. The observations taken during the test were as follows. […]

[2] = cited from earlier work
[3] = after an IV dose, PET; cited from earlier work

SMILES: COc1ccc2c3c1O[C@H]1C(=O)CC[C@@]4(O)[C@@H](C2)N(C)CC[C@]314 [oxycodone free base form, oxycodone]
- observation upon heating in volatilization test [1]: vaporizes/sublimes upon heating

SMILES: COC(=O)C(c1ccccc1)C1CCCCN1 (racemic) [methylphenidate, dl-threo-methyl-2-phenyl-2-(2-piperidyl) acetate]
- dose deesterified to the inactive major metabolite, ritalinic acid ([2]; excreted in the urine): About 70%
- Tmax following oral administration (mean) ([2]; immediate release, oral): 1.5 h
- d-threo to l-threo plasma concentration ratio ([2]; in vivo): ~10:1
- systemic half-life ([2]; in vivo): approximately 3 hours

SMILES: COc1ccc2c3c1O[C@H]1C(=O)CC[C@@]4(O)[C@@H](C2)N(C)CC[C@]314.Cl [oxycodone HCl]
- observation upon heating in volatilization test [1]: extensive degradation and charring

SMILES: COC(=O)C(c1ccccc1)C1CCCCN1 (centres unmarked) [^11C-labeled methylphenidate]
- brain clearance half life [3]: 1.5 h
- brain uptake Tmax [3]: < 0.167 h
